Assay results published in PubChem BioAssay (NCI).
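Growth conditions: 96-well plates. Treatment: test compound, 48 hours, 5 concentrations. Analysis: linear interpolation between bracketing concentrations; unreached endpoints set to highest concentration. GI50: concentration for 50% inhibition of growth. At the TGI there is no net growth.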

Columns and labels:
Test in all cases: NCI-60 cell line screen, 48 h
MALME-3M melanoma = tested on: MALME-3M melanoma
OVCAR-8 ovarian = tested on: OVCAR-8 ovarian
UO-31 renal = tested on: UO-31 renal
BT-549 breast = tested on: BT-549 breast
U251 CNS = tested on: U251 CNS
LOX IMVI melanoma = tested on: LOX IMVI melanoma
SK-OV-3 ovarian = tested on: SK-OV-3 ovarian
A498 renal = tested on: A498 renal
UACC-257 melanoma = tested on: UACC-257 melanoma
HCT-15 colon = tested on: HCT-15 colon
PC-3 prostate = tested on: PC-3 prostate
NCI/ADR-RES ovarian = tested on: NCI/ADR-RES ovarian
MCF7 breast = tested on: MCF7 breast
RXF 393 renal = tested on: RXF 393 renal
TK-10 renal = tested on: TK-10 renal
SK-MEL-28 melanoma = tested on: SK-MEL-28 melanoma
SW-620 colon = tested on: SW-620 colon
RPMI-8226 leukemia = tested on: RPMI-8226 leukemia
786-0 renal = tested on: 786-0 renal
SN12C renal = tested on: SN12C renal
HT29 colon = tested on: HT29 colon
SK-MEL-5 melanoma = tested on: SK-MEL-5 melanoma
SF-268 CNS = tested on: SF-268 CNS
K-562 leukemia = tested on: K-562 leukemia
HS 578T breast = tested on: HS 578T breast
SR leukemia = tested on: SR leukemia
NCI-H460 lung = tested on: NCI-H460 lung

**Q.** How did the TGI (MALME-3M melanoma) turn out when Cc1ccc(N=C/C=C(\Nc2ccc(C)cc2)c2ccc(Cl)cc2)cc1 was run?
**A.** The TGI was 48.4 µM.

**Q.** What about the GI50 (OVCAR-8 ovarian) of the same compound?
**A.** Its GI50 is 14.6 µM.

**Q.** What about the TGI (OVCAR-8 ovarian) of the same compound?
**A.** The TGI was 53.6 µM.

**Q.** What about the GI50 (UO-31 renal) of the same compound?
**A.** The GI50 was 21.4 µM.

**Q.** What about the TGI (UO-31 renal) of the same compound?
**A.** The TGI was 85.8 µM.

**Q.** What about the GI50 (BT-549 breast) of the same compound?
**A.** Its GI50 is 11.2 µM.

**Q.** What about the TGI (BT-549 breast) of the same compound?
**A.** The TGI was 29.2 µM.

**Q.** And the GI50 (U251 CNS)?
**A.** The GI50 was 7.39 µM.

**Q.** What about the TGI (U251 CNS) of the same compound?
**A.** Its TGI is 50.1 µM.

**Q.** What about the GI50 (LOX IMVI melanoma) of the same compound?
**A.** Its GI50 is 5.58 µM.

**Q.** And the TGI (LOX IMVI melanoma)?
**A.** Its TGI is over 100 µM.

**Q.** What about the GI50 (SK-OV-3 ovarian) of the same compound?
**A.** The GI50 was 21 µM.

**Q.** What about the TGI (SK-OV-3 ovarian) of the same compound?
**A.** The TGI was over 100 µM.

**Q.** And the GI50 (A498 renal)?
**A.** Its GI50 is 16.8 µM.

**Q.** And the TGI (A498 renal)?
**A.** Its TGI is 34.1 µM.

**Q.** And the GI50 (UACC-257 melanoma)?
**A.** The GI50 was 15.8 µM.

**Q.** What about the TGI (UACC-257 melanoma) of the same compound?
**A.** Its TGI is 38.8 µM.

**Q.** And the GI50 (HCT-15 colon)?
**A.** The GI50 was 5.77 µM.

**Q.** What about the TGI (HCT-15 colon) of the same compound?
**A.** The TGI was over 100 µM.

**Q.** And the GI50 (PC-3 prostate)?
**A.** Its GI50 is 26.8 µM.

**Q.** What about the TGI (PC-3 prostate) of the same compound?
**A.** Its TGI is over 100 µM.

**Q.** And the GI50 (NCI/ADR-RES ovarian)?
**A.** Its GI50 is 5.1 µM.

**Q.** And the TGI (NCI/ADR-RES ovarian)?
**A.** The TGI was 22.1 µM.

**Q.** What about the GI50 (MCF7 breast) of the same compound?
**A.** Its GI50 is 5.77 µM.

**Q.** What about the TGI (MCF7 breast) of the same compound?
**A.** The TGI was 69.6 µM.

**Q.** And the GI50 (RXF 393 renal)?
**A.** Its GI50 is 17.6 µM.

**Q.** What about the TGI (RXF 393 renal) of the same compound?
**A.** Its TGI is 59.2 µM.

**Q.** What about the GI50 (TK-10 renal) of the same compound?
**A.** The GI50 was 12.3 µM.

**Q.** What about the TGI (TK-10 renal) of the same compound?
**A.** The TGI was 42.2 µM.

**Q.** What about the GI50 (SK-MEL-28 melanoma) of the same compound?
**A.** The GI50 was 4.99 µM.

**Q.** And the TGI (SK-MEL-28 melanoma)?
**A.** The TGI was 27.1 µM.

**Q.** What about the GI50 (SW-620 colon) of the same compound?
**A.** Its GI50 is 6.44 µM.

**Q.** What about the TGI (SW-620 colon) of the same compound?
**A.** The TGI was 52 µM.

**Q.** And the GI50 (RPMI-8226 leukemia)?
**A.** Its GI50 is 3.53 µM.

**Q.** What about the TGI (RPMI-8226 leukemia) of the same compound?
**A.** Its TGI is over 100 µM.

**Q.** And the GI50 (786-0 renal)?
**A.** Its GI50 is 11.1 µM.

**Q.** And the TGI (786-0 renal)?
**A.** The TGI was 28.7 µM.

**Q.** And the GI50 (SN12C renal)?
**A.** Its GI50 is 11.7 µM.

**Q.** And the TGI (SN12C renal)?
**A.** The TGI was 33.3 µM.

**Q.** What about the GI50 (HT29 colon) of the same compound?
**A.** Its GI50 is 4 µM.

**Q.** And the TGI (HT29 colon)?
**A.** The TGI was over 100 µM.

**Q.** What about the GI50 (SK-MEL-5 melanoma) of the same compound?
**A.** The GI50 was 6 µM.

**Q.** What about the TGI (SK-MEL-5 melanoma) of the same compound?
**A.** Its TGI is 20.7 µM.

**Q.** And the GI50 (SF-268 CNS)?
**A.** The GI50 was 13.4 µM.

**Q.** And the TGI (SF-268 CNS)?
**A.** The TGI was 40.2 µM.

**Q.** What about the GI50 (K-562 leukemia) of the same compound?
**A.** The GI50 was 4.75 µM.

**Q.** What about the TGI (K-562 leukemia) of the same compound?
**A.** The TGI was over 100 µM.

**Q.** And the GI50 (HS 578T breast)?
**A.** Its GI50 is 15.3 µM.

**Q.** And the TGI (HS 578T breast)?
**A.** Its TGI is 41.7 µM.

**Q.** And the GI50 (SR leukemia)?
**A.** The GI50 was 2.32 µM.

**Q.** And the TGI (SR leukemia)?
**A.** Its TGI is over 100 µM.

**Q.** And the GI50 (NCI-H460 lung)?
**A.** The GI50 was 6.38 µM.

**Q.** What about the TGI (NCI-H460 lung) of the same compound?
**A.** Its TGI is 60.6 µM.
